Columns and labels:
acetylcholine esterase = acetylcholine esterase (Homo sapiens, UniProt P22303); test: electrochemical flow cell assay of inhibition of acetylcholine esterase (esterase/choline oxidase/peroxidase cascade); type: biochemical
Protocol: An aqueous carrier liquid is prepared in an oxygen-containing atmosphere to comprise the buffer of Example 1 and acetylcholine, the total volume of the liquid being less than 0.1 mL. Two samples are prepared. The first sample contains only the buffered acetylcholine solution; the second sample contains the liquid carrier and 100 pg malathion, an insecticide.
The first sample is introduced into the flow cell through the inlet, and the working electrode is poised at +0.1 V versus the standard calomel electrode. The acetylcholine in the solution is hydrolyzed by the esterase on the electrode, producing choline, which, in turn, combines with dissolved oxygen to form hydrogen peroxide. The hydrogen peroxide is electroreduced to water. An electric current is produced between the electrodes as a result. The current produced provides a baseline against which current produced as a result of enzymatic inhibition is measured.

horseradish peroxidase = horseradish peroxidase (Armoracia rusticana, UniProt P00433); conditions: pH 7
horseradish peroxidase, sequence (P00433 31-338): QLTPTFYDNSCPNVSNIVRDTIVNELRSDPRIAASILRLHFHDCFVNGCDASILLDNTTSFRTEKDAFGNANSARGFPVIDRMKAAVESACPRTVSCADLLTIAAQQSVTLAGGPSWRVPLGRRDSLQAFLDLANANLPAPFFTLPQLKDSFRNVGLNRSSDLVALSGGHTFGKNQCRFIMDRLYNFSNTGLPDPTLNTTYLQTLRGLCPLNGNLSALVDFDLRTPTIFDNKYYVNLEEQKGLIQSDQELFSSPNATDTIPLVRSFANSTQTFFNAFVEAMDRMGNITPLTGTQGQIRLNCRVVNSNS
Protocol: A system with a total volume of 0.1 mL comprising a flow cell is constructed. The cell comprises a detection chamber having an interior volume of 5 μl, an inlet for directing a stream of liquid into the detection chamber, and an outlet for directing liquid out of the detection chamber. The detection chamber contains a working electrode for assessing the capability of candidate compounds for inhibiting the catalytic activity of horseradish peroxidase, a carbon paste counter electrode, and downstream from the working electrode, near the outlet, a standard calomel reference electrode. The working electrode is formed by co-depositing on a conductive substrate horseradish peroxidase and a redox polymer formed of poly(4-vinyl pyridine) partially reacted with 2-bromoethylamine and partially complexed with [Os(bpy)2Cl]^+/2+ where bpy=2,2′-bipyridine complex of osmium (2+/3+) and poly(4-vinyl pyridine). The horseradish peroxidase and the redox polymer are crosslinked on the substrate by periodate oxidation, whereby aldehyde functions are produced in the oligosaccharides of the peroxidase, and by adding PEGDGE, polyethylene glycol diglycidyl ether.
An aqueous pH 7 phosphate buffer comprises 0.15 M NaCl and 1 mM hydrogen peroxide. Three liquid samples are prepared, each sample 0.1 mL. […]

acetylcholine esterase, sequence (P22303 32-614): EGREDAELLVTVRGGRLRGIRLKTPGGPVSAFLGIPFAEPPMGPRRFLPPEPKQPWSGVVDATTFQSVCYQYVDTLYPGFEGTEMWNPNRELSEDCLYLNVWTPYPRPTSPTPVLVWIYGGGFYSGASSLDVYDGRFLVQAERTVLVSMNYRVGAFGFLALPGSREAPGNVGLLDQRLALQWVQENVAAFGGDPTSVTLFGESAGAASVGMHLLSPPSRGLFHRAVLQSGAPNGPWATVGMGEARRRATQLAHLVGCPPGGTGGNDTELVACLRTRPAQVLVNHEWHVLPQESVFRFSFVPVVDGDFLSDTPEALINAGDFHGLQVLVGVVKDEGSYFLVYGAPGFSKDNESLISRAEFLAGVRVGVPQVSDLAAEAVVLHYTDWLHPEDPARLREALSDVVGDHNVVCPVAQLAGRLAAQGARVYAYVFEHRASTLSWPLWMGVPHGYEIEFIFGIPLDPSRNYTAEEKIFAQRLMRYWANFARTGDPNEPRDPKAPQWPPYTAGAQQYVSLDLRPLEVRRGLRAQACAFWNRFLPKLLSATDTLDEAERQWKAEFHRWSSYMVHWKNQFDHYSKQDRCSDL

Row | Structure (SMILES) | current passing from one electrode to another, versus baseline (inhibition of catalytic activity of acetylcholine esterase) (acetylcholine esterase) | current passing from one electrode to another, versus baseline (inhibition of catalytic activity of horseradish peroxidase) (horseradish peroxidase)
1 | CCOC(=O)CC(SP(=S)(OC)OC)C(=O)OCC (centres unmarked) [malathion] | decreased | 
2 | [N-]=[N+]=[N-].[Na+] [azide, sodium azide] |  | decreased
